Like-named read-outs stand apart in the source and are kept apart here.
How the values were obtained:
[1] = tested on: hyper locomotion induced by methamphetamine in mice; experiment: Anti-methamphetamine effect (antipsychotic activity): suppression of hyper locomotion induced by methamphetamine in mice; assay type: in vivo, mice (male ddY); conditions: ip; for ED50: Mus musculus, read-out: Anti-methamphetamine effect ED50
Protocol: Antipsychotic activity was evaluated on the basis of the suppressive activity on the stimulation of hyper locomotion induced by methamphetamine in mice. Male ddY mice having a weight of 25-35 g were divided into groups consisting of 3-6 animals. The mouse was subcutaneously administered with methamphetamine (2 mg/kg) fifteen minutes before the compound of the present invention was intraperitoneally administered. After further fifteen minutes, the animal was then placed in an apparatus to measure the locomotion for thirty minutes. (MUROMACHI KIKAI, ANIMEX AUTO MK-110) The effects of haloperidol and chlorpromazine were also evaluated as controls.

in vivo = conditions: mouse, in vivo, ip
Protocol: (§1) The extrapyramidal activity was evaluated on the basis of the catalepsy provoking effect as a representative pharmacological evaluation method of the extrapyramidal effect. Male ddY mice having a body weight of 25-35 g which were divided into groups consisting of 3-6 animals were subjected to the test. The compound of the present invention was administered intraperitoneally to observe catalepsy after 20, 30 and 40 minutes, respectively. Catalepsy was judged as positive in such cases that a mouse whose front paw was compulsorily hung up on an iron bar having a diameter of 1 mm and horizontally laid at a height of 3 cm remained in such a strained posture for more than 30 seconds.

catalepsy in mice = experiment: in vivo; conditions: ip
Protocol: as §1

[2] = male ddY mice, methamphetamine 2 mg/kg sc 15 min before compound, locomotion measured for 30 min

| SMILES | ED50 [1, 2] [mg/kg] | anti-methamphetamine activity, that is the anti-psychotic activity (in words) ([1]; male ddY mice) | TD50 (in vivo) [mg/kg] | catalepsy provoking effect / extrapyramidal side effect (in words) (catalepsy in mice; mouse, in vivo) | ED50 [1] [mg/kg] | catalepsy provoking effect / extrapyramidal side effect (in words) (catalepsy in mice; male ddY mice) |
| --- | --- | --- | --- | --- | --- | --- |
| c1ccc2c(N3CCN(CCCCn4c5ccccc5c5ccccc54)CC3)nsc2c1 [Example 2, 9-[4-[4-(1,2-benzisothiazol-3-yl)-1-piperazinyl]butyl]carbazole] | 1.15 | have the anti-methamphetamine activity | > 100 | very weak extrapyramidal side effect | – | – |
| O=C(CCCN1CCC(O)(c2ccc(Cl)cc2)CC1)c1ccc(F)cc1 [Haloperidol, haloperidol] | – | have the anti-methamphetamine activity | 1.3 | – | 0.16 | strong catalepsy provoking effect |
| CN(C)CCCN1c2ccccc2Sc2ccc(Cl)cc21 [Chlorpromazine, chlorpromazine] | – | have the anti-methamphetamine activity | 6.2 | – | 1.05 | strong catalepsy provoking effect |
| O=c1ccc2ccccc2n1CCCN1CCN(c2nsc3ccccc23)CC1 [Example 5, 1-[4-[4-(1,2-benzisothiazol-3-yl)-1-piperazinyl]propyl]-2(1H)-quinolinone] | 0.92 | have the anti-methamphetamine activity | 83.3 | very weak extrapyramidal side effect | – | – |
